Laboratory results reported in patent US10314806B2 (SICHUAN JIUZHANG BIOLOGICAL SCIENCE AND TECHNOLOGY CO., LTD., priority 2014, dated 2019).

Legend:
[1] = test system: chemical liver injury (rat alcoholic fatty liver model); assay: Protective effect on chemical liver injury (rat alcoholic fatty liver model); format: in vivo, rats; conditions: for GSH / SOD / ALT / AST / MDA: 30 days; for GSH / SOD / MDA: liver homogenate; for ALT / AST: serum
Experimental: Experimental grouping and dose design: Female SD rats were randomly divided to groups, 10 rats for each group, […], 70 mg·kg^−1, 85 mg·kg^−1, 100 mg·kg^−1, 120 mg·kg^−1, 140 mg·kg^−1, 160 mg·kg^−1, 180 mg·kg^−1, […], together with a negative control group and 50% ethanol model control group. Liver injury model was induced by ethanol (analytical pure).
Determination of ALT, AST, TG in serum of rats; Determination of SOD, MDA, reduced glutathione (GSH) in liver homogenate.
Statistics of experimental data: Statistical analysis of experimental data was performed using software package of SPSS 19.0 for windows.

[2] = test system: Lewis lung cancer; assay: Inhibition of mice-transplanted tumor of Lewis lung cancer C57BL/6; format: in vivo; conditions: for Inhibitory rate / Tumor weight: 12 times
Experimental: Animal C57BL/6 mice, body weight 13˜20 g, half male and half female.
Cell Lines Lewis cells were mice lung cancer cells, and grew adhering to the wall in RPMI-1640 media containing 10% calf serum, 100 U·ml^−1 penicillin, 100 μg·ml^−1 streptomycin, and were cultured in an incubator at 37° C. under 5% CO2, followed by changing the medium and subculturing every two or three days.
Viable cells were counted by trypan blue staining. Cell suspension was subcutaneously inoculated at the left forelimb armpit of mice at 0.2 ml/animal (containing about 1×10^7 cells), and after tumor grew to 1 cm×1 cm×1 cm, mice were used in experiment. Mice tumors were aseptically stripped, and washed with Hank's solution thrice, to remove blood, fat and necrotic tissues. Tumors were cut to broken pieces of 1 mm×1 mm×1 mm, and washed with Hank's solution twice, to which physiological saline was added at a ratio of (1 g:3 ml), and then ground in a glass homogenizer and filtered by 80-100 mesh sieve to make a suspension of single cell. Viable cells were counted by trypan blue staining.
On the second day after inoculation, a dosage of 0.2 ml·10 g^−1 was administrated to each group by peritoneal injection (ip) for successive 12 times, once a day. When the tumor weight in negative control group was more than 1.0 g (tumor volume being about 0.5 cm^3), the experiment was stopped, and mice were sacrificed by cervical vertebrae removal and weighed. Tumors were stripped to calculate inhibitory rate.

## O=C(/C=C/c1ccc(O)c(O)c1)O[C@@H]1C[C@](O)(C(=O)O)C[C@@H](O)[C@H]1O [Commercially available chlorogenic acid, chlorogenic acid, reference compound]
[1]; 10 mg·kg^−1 intragastric
  GSH: 12.57 ± 3.84 mg/g
  SOD: 26.15 ± 2.45 nmol/mg
  ALT: 58.67 ± 2.89 U/L
  AST: 194.12 ± 6.32 U/L
[1]; 20 mg·kg^−1 intragastric
  GSH: 13.62 ± 4.87 mg/g
  SOD: 27.24 ± 2.78 nmol/mg
  ALT: 57.41 ± 3.15 U/L
  AST: 193.89 ± 3.84 U/L
[1]; 35 mg·kg^−1 intragastric
  GSH: 14.83 ± 5.47 mg/g
  SOD: 28.05 ± 1.45 nmol/mg
  ALT: 56.84 ± 2.87 U/L
  AST: 192.12 ± 5.12 U/L
[1]; 50 mg·kg^−1 intragastric
  GSH: 15.57 ± 3.16 mg/g
  SOD: 29.14 ± 3.78 nmol/mg
  ALT: 56.88 ± 2.64 U/L
  AST: 190.56 ± 4.28 U/L
[1]; 70 mg·kg^−1 intragastric
  GSH: 16.88 ± 2.78 mg/g
  SOD: 30.55 ± 2.05 nmol/mg
  ALT: 55.14 ± 1.65 U/L
  AST: 190.88 ± 3.65 U/L
[1]; 85 mg·kg^−1 intragastric
  GSH: 17.37 ± 3.87 mg/g
  SOD: 31.04 ± 2.58 nmol/mg
  ALT: 53.24 ± 6.11 U/L
  AST: 198.87 ± 2.78 U/L
[1]; 100 mg·kg^−1 intragastric
  GSH: 18.00 ± 3.21 mg/g
  SOD: 32.54 ± 3.47 nmol/mg
  AST: 187.12 ± 4.57 U/L
[1]; 120 mg·kg^−1 intragastric
  GSH: 18.24 ± 6.48 mg/g
  SOD: 33.65 ± 5.01 nmol/mg
  AST: 184.25 ± 3.49 U/L
[1]; 140 mg·kg^−1 intragastric
  GSH: 18.65 ± 3.48 mg/g
  SOD: 33.29 ± 2.68 nmol/mg
  AST: 182.36 ± 3.87 U/L
[1]; 160 mg·kg^−1 intragastric
  GSH: 17.55 ± 4.87 mg/g
  SOD: 33.12 ± 1.75 nmol/mg
  AST: 180.15 ± 6.48 U/L
[1]; 180 mg·kg^−1 intragastric
  GSH: 17.98 ± 5.94 mg/g
  SOD: 32.87 ± 2.16 nmol/mg
  AST: 179.54 ± 4.16 U/L
[1]; 200 mg·kg^−1 intragastric
  GSH: 16.49 ± 4.21 mg/g
  SOD: 31.11 ± 2.54 nmol/mg
  AST: 185.48 ± 3.94 U/L
[1]; 220 mg·kg^−1 intragastric
  GSH: 15.31 ± 3.46 mg/g
  SOD: 28.15 ± 2.04 nmol/mg
  AST: 188.34 ± 5.87 U/L
[2]; 1 mg·kg^−1 ip once a day
  Inhibitory rate: 3.2%
  Tumor weight: 1.437 ± 0.466 g
[2]; 5 mg·kg^−1 ip once a day
  Inhibitory rate: 6.6%
  Tumor weight: 1.386 ± 0.398 g
[2]; 10 mg·kg^−1 ip once a day
  Inhibitory rate: 23.5%
[2]; 20 mg·kg^−1 ip once a day
  Inhibitory rate: 32.9%
  Tumor weight: 0.996 ± 0.428 g
[2]; 30 mg·kg^−1 ip once a day
  Inhibitory rate: 32.5%
  Tumor weight: 1.001 ± 0.204 g
[2]; 40 mg·kg^−1 ip once a day
  Inhibitory rate: 31.8%
  Tumor weight: 1.012 ± 0.369 g
[2]; 50 mg·kg^−1 ip once a day
  Inhibitory rate: 25.3%
[2]; 60 mg·kg^−1 ip once a day
  Inhibitory rate: 21.6%
[2]; 70 mg·kg^−1 ip once a day
  Inhibitory rate: 17.8%
  Tumor weight: 1.220 ± 0.237 g
[2]; 80 mg·kg^−1 ip once a day
  Inhibitory rate: 14.2%
  Tumor weight: 1.273 ± 0.511 g
[2]; 90 mg·kg^−1 ip once a day
  Inhibitory rate: 12.4%
  Tumor weight: 1.300 ± 0.462 g
[2]; 100 mg·kg^−1 ip once a day
  Inhibitory rate: 8.6%
  Tumor weight: 1.356 ± 0.338 g

## O=C(/C=C/c1ccc(O)c(O)c1)O[C@@H]1C[C@](O)(C(=O)O)C[C@@H](O)[C@H]1O [Chlorogenic acid of the present invention]
[1]; 10 mg·kg^−1 intragastric
  GSH: 13.02 ± 1.23 mg/g
  SOD: 28.12 ± 3.25 nmol/mg
  AST: 189.54 ± 4.87 U/L
[1]; 20 mg·kg^−1 intragastric
  GSH: 18.98 ± 2.14 mg/g
  MDA: 5.15 ± 0.21 U/mg
  SOD: 36.45 ± 2.47 nmol/mg
  AST: 178.54 ± 6.15 U/L
[1]; 35 mg·kg^−1 intragastric
  GSH: 19.21 ± 1.45 mg/g
  MDA: 5.14 ± 0.47 U/mg
  SOD: 37.27 ± 3.25 nmol/mg
  AST: 168.54 ± 4.31 U/L
[1]; 50 mg·kg^−1 intragastric
  GSH: 22.14 ± 2.41 mg/g
  MDA: 4.12 ± 0.65 U/mg
  SOD: 38.24 ± 2.75 nmol/mg
  ALT: 40.12 ± 3.15 U/L
  AST: 139.21 ± 5.14 U/L
[1]; 70 mg·kg^−1 intragastric
  GSH: 22.87 ± 2.47 mg/g
  MDA: 4.56 ± 0.78 U/mg
  SOD: 38.75 ± 3.21 nmol/mg
  ALT: 38.48 ± 2.47 U/L
  AST: 127.54 ± 6.54 U/L
[1]; 85 mg·kg^−1 intragastric
  GSH: 23.01 ± 1.58 mg/g
  MDA: 4.32 ± 0.46 U/mg
  SOD: 40.14 ± 6.12 nmol/mg
  ALT: 35.47 ± 2.46 U/L
  AST: 119.25 ± 6.89 U/L
[1]; 100 mg·kg^−1 intragastric
  GSH: 23.48 ± 1.78 mg/g
  MDA: 4.08 ± 0.85 U/mg
  SOD: 41.56 ± 4.32 nmol/mg
  ALT: 33.14 ± 1.89 U/L
  AST: 126.89 ± 4.21 U/L
[1]; 120 mg·kg^−1 intragastric
  GSH: 23.98 ± 2.14 mg/g
  MDA: 3.89 ± 0.42 U/mg
  SOD: 42.87 ± 3.15 nmol/mg
  ALT: 39.85 ± 2.41 U/L
  AST: 138.84 ± 5.15 U/L
[1]; 140 mg·kg^−1 intragastric
  GSH: 24.35 ± 1.58 mg/g
  MDA: 3.57 ± 0.64 U/mg
  SOD: 44.78 ± 2.31 nmol/mg
  ALT: 40.08 ± 2.78 U/L
  AST: 140.54 ± 6.12 U/L
[1]; 160 mg·kg^−1 intragastric
  GSH: 20.01 ± 1.47 mg/g
  MDA: 4.05 ± 0.25 U/mg
  SOD: 38.56 ± 2.45 nmol/mg
  AST: 157.98 ± 5.27 U/L
[1]; 180 mg·kg^−1 intragastric
  GSH: 19.87 ± 2.84 mg/g
  MDA: 4.98 ± 0.87 U/mg
  SOD: 37.25 ± 4.27 nmol/mg
  AST: 168.12 ± 4.89 U/L
[1]; 200 mg·kg^−1 intragastric
  GSH: 19.01 ± 1.58 mg/g
  MDA: 5.45 ± 0.24 U/mg
  SOD: 36.25 ± 2.87 nmol/mg
  AST: 177.56 ± 4.25 U/L
[1]; 220 mg·kg^−1 intragastric
  GSH: 17.24 ± 1.89 mg/g
  SOD: 30.12 ± 2.14 nmol/mg
  AST: 189.98 ± 5.67 U/L
[1]; dosage of 50 mg/kg-140 mg/kg had the most obvious effect
  inhibitory action on chemical liver injury: obviously inhibitory action
[2]; 1 mg·kg^−1 ip once a day
  Inhibitory rate: 2.6%
  Tumor weight: 1.445 ± 0.772 g
[2]; 5 mg·kg^−1 ip once a day
  Inhibitory rate: 14.2%
  Tumor weight: 1.273 ± 0.258 g
[2]; 10 mg·kg^−1 ip once a day
  Inhibitory rate: 56.5%
  Tumor weight: 0.646 ± 0.230 g
[2]; 20 mg·kg^−1 ip once a day
  Inhibitory rate: 74.6%
[2]; 30 mg·kg^−1 ip once a day
  Inhibitory rate: 78.3%
  Tumor weight: 0.322 ± 0.111 g
[2]; 40 mg·kg^−1 ip once a day
  Inhibitory rate: 76.4%
  Tumor weight: 0.350 ± 0.078 g
[2]; 50 mg·kg^−1 ip once a day
  Inhibitory rate: 65.6%
  Tumor weight: 0.510 ± 0.241 g
[2]; 60 mg·kg^−1 ip once a day
  Inhibitory rate: 59.2%
  Tumor weight: 0.605 ± 0.363 g
[2]; 70 mg·kg^−1 ip once a day
  Inhibitory rate: 32.3%
  Tumor weight: 1.005 ± 0.657 g
[2]; 80 mg·kg^−1 ip once a day
  Inhibitory rate: 24.8%
[2]; 90 mg·kg^−1 ip once a day
  Inhibitory rate: 17.6%
  Tumor weight: 1.223 ± 0.314 g
[2]; 100 mg·kg^−1 ip once a day
  Inhibitory rate: 11.3%
  Tumor weight: 1.316 ± 0.352 g
[2]; compared with the negative control group, obvious in the dosage groups of 10 mg/kg-60 mg/kg
  inhibitory action on mice-transplanted tumor of Lewis lung cancer C57BL/6: obviously inhibitory action
